# Laboratory results from US10681909B2, “Herbicidal triazoles” (FMC Corporation, priority 2014, dated 2020).
# Columns and labels:
# velvetleaf = assay: Test A postemergence; format: in vivo, Abutilon theophrasti; conditions: Abutilon theophrasti, post-emergence, 240 h, 0 to 100 scale (0 no effect, 100 complete control), approx. 10 d, read-out: Plant response rating, Velvetleaf
# Method in brief: (§1)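 Loam/sand soil mix; compound in non-phytotoxic solvent + surfactant. Pre: directed soil spray right after planting seed. Post: potted plants 2–10 cm, 1–2 leaf stage, sprayed with same formulation.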
# ryegrass, Ital. [1] = assay: Test D postemergence; format: in vivo, Lolium multiflorum; conditions: scale 0 to 100
# From the text: (§2) Seeds of plant species selected from bluegrass (annual bluegrass, Poa annua), blackgrass (Alopecurus myosuroides), canarygrass (Phalaris minor), chickweed (common chickweed, Stellaria media), galium (catchweed bedstraw, Galium aparine), bromegrass, down (downy bromegrass, Bromus tectorum), Russian thistle (Salsola kali), field poppy (Papaver rhoeas), field violet (Viola arvensis), foxtail, green (green foxtail, Setaria viridis), deadnettle (henbit deadnettle, Lamium amplexicaule), ryegrass, Ital. (Italian ryegrass, Lolium multiflorum), kochia (Kochia scoparia), lambsquarters (Chenopodium album), oilseed rape (Brassica napus), pigweed (Amaranthus retroflexus), chamomile (scentless chamomile, Matricaria inodora), speedwell (bird's-eye speedwell, Veronica persica), barley, spring (spring barley, Hordeum vulgare), wheat, spring (spring wheat, Triticum aestivum), buckwheat, wild (wild buckwheat, Polygonum convolvulus), wild mustard (Sinapis arvensis), oat, wild (wild oat, Avena fatua), radish, wild (wild radish, Raphanus raphanistrum), […]), barley, winter (winter barley, Hordeum vulgare), and wheat, winter (winter wheat, Triticum aestivum) were planted into a silt loam soil and treated preemergence with test chemicals formulated in a non-phytotoxic solvent mixture which included a surfactant. At the same time, these species were planted in pots containing Sunshine Redi-Earth® planting medium comprising spaghnum peat moss, vermiculite, starter nutrients and dolomitic limestone and treated with postemergence applications of the test chemicals formulated in the same manner. Plants ranged in height from 2 to 18 cm (1- to 4-leaf stage). Treated plants and controls were maintained in a controlled growth environment for 14 to 21 d after which time all species were compared to controls and visually evaluated. […] A dash (-) response means no test result.
# chickweed = assay: Test D preemergence; format: in vivo, Stellaria media; conditions: scale 0 to 100
# From the text: as §2
# ryegrass, Ital. [2] = assay: Test D preemergence; format: in vivo, Lolium multiflorum; conditions: scale 0 to 100
# From the text: as §2
# wheat = assay: Test A preemergence; format: in vivo, Triticum aestivum; conditions: Triticum aestivum, pre-emergence, 240 h, 0 to 100 scale (0 no effect, 100 complete control), read-out: Plant response rating, Wheat
# Method in brief: as §1
# wheat, winter = assay: Test D postemergence; format: in vivo, Triticum aestivum; conditions: scale 0 to 100
# From the text: as §2
# wheat, spring = assay: Test D postemergence; format: in vivo, Triticum aestivum; conditions: scale 0 to 100
# From the text: as §2
# galium = assay: Test D postemergence; format: in vivo, Galium aparine; conditions: scale 0 to 100
# From the text: as §2
# canarygrass = assay: Test D postemergence; format: in vivo, Phalaris minor; conditions: scale 0 to 100
# From the text: as §2
# windgrass = assay: Test D preemergence; format: in vivo, Apera spica-venti; conditions: scale 0 to 100
# From the text: as §2
# johnsongrass = assay: Test C preemergence; format: in vivo, Sorghum halepense; conditions: for Plant response rating (scale of 0 to 100 where 0 is no effect and 100 is complete control): Johnsongrass, preemergence; for Johnsongrass plant response rating (0 to 100): Preemergence, visual rating after 13 to 15 d
# From the text: Seeds of plant species selected from blackgrass (Alopecurus myosuroides), ryegrass, Italian (Italian ryegrass, Lolium multiflorum), wheat (winter wheat, Triticum aestivum), galium (catchweed bedstraw, Galium aparine), corn (Zea mays), crabgrass, large (large crabgrass, Digitaria sanguinalis), foxtail, giant, (giant foxtail, Setaria faberii), johnsongrass (Sorghum halepense), lambsquarters (Chenopodium album), morningglory (Ipomoea coccinea), nutsedge, yellow (yellow nutsedge, Cyperus esculentus), pigweed (Amaranthus retroflexus), ragweed (common ragweed, Ambrosia elatior), soybean (Glycine max), barnyardgrass (Echinochloa crus-galli), oilseed rape (Brassica napus), waterhemp (common waterhemp, Amaranthus rudis), and velvetleaf (Abutilon theophrasti) were planted into a blend of loam soil and sand and treated preemergence with test chemicals formulated in a non-phytotoxic solvent mixture which included a surfactant. At the same time, plants selected from these crop and weed species and also chickweed (common chickweed, Stellaria media), oat, wild (wild oat, Avena fatua), and kochia (Kochia scoparia), were planted in pots containing Sunshine Redi-Earth® planting medium comprising spaghnum peat moss, vermiculite, starter nutrients and dolomitic limestone and treated with postemergence applications of test chemicals formulated in the same manner. Plants ranged in height from 2 to 18 cm (1- to 4-leaf stage) for postemergence treatments. […] A dash (-) response means no test result.
# barley, winter = assay: Test D postemergence; format: in vivo, Hordeum vulgare; conditions: scale 0 to 100
# From the text: as §2
# barley, spring = assay: Test D postemergence; format: in vivo, Hordeum vulgare; conditions: scale 0 to 100
# From the text: as §2
compound,measurement,setting,value
"CCc1nc(-c2ccc(C(F)(F)F)cc2)nn1Cc1ccnc(C(F)(F)F)c1 [Compound 1, 4-[[5-ethyl-3-[4-(trifluoromethyl)phenyl]-1H-1,2,4-triazol-1-yl]methyl]-2-(trifluoromethyl)pyridine]",pest or weed control at 125 g/ha,velvetleaf; 125 g ai/ha,90%
same,pest or weed control at 500 g/ha,velvetleaf; 500 g ai/ha,100%
same,"Plant response rating: Ryegrass, Ital.","ryegrass, Ital. [1]; 31 g ai/ha",10
same,"Plant response rating: Ryegrass, Ital.","ryegrass, Ital. [1]; 62 g ai/ha",15
same,"Plant response rating: Ryegrass, Ital.","ryegrass, Ital. [1]; 125 g ai/ha",20
same,"Plant response rating: Ryegrass, Ital.","ryegrass, Ital. [1]; 250 g ai/ha",35
same,Plant response rating: Chickweed,chickweed; 31 g ai/ha,90
same,Plant response rating: Chickweed,chickweed; 62 g ai/ha,100
same,Plant response rating: Chickweed,chickweed; 125 g ai/ha,100
same,Plant response rating: Chickweed,chickweed; 250 g ai/ha,100
same,"Plant response rating: Ryegrass, Ital.","ryegrass, Ital. [2]; 62 g ai/ha",25
same,"Plant response rating: Ryegrass, Ital.","ryegrass, Ital. [2]; 125 g ai/ha",30
same,"Plant response rating: Ryegrass, Ital.","ryegrass, Ital. [2]; 250 g ai/ha",35
same,plant injury at 125 g/ha,wheat; 125 g ai/ha,20%
same,plant injury at 500 g/ha,"wheat; 500 g ai/ha, approx. 10 d",30%
same,"Plant response rating: Wheat, Winter","wheat, winter; 31 g ai/ha",15
same,"Plant response rating: Wheat, Winter","wheat, winter; 62 g ai/ha",15
same,"Plant response rating: Wheat, Winter","wheat, winter; 125 g ai/ha",25
same,"Plant response rating: Wheat, Winter","wheat, winter; 250 g ai/ha",35
same,"Plant response rating: Wheat, Spring","wheat, spring; 31 g ai/ha",20
same,"Plant response rating: Wheat, Spring","wheat, spring; 62 g ai/ha",25
same,"Plant response rating: Wheat, Spring","wheat, spring; 125 g ai/ha",35
same,"Plant response rating: Wheat, Spring","wheat, spring; 250 g ai/ha",45
same,Plant response rating: Galium,galium; 31 g ai/ha,70
same,Plant response rating: Galium,galium; 62 g ai/ha,70
same,Plant response rating: Galium,galium; 125 g ai/ha,90
same,Plant response rating: Galium,galium; 250 g ai/ha,90
same,Plant response rating: Canarygrass,canarygrass; 31 g ai/ha,15
same,Plant response rating: Canarygrass,canarygrass; 62 g ai/ha,20
same,Plant response rating: Canarygrass,canarygrass; 125 g ai/ha,35
same,Plant response rating: Canarygrass,canarygrass; 250 g ai/ha,65
same,Plant response rating: Windgrass,windgrass; 62 g ai/ha,100
same,Plant response rating: Windgrass,windgrass; 125 g ai/ha,100
same,Plant response rating: Windgrass,windgrass; 250 g ai/ha,100
same,Plant response rating (scale of 0 to 100 where 0 is no effect and 100 is complete control),johnsongrass; 125 g ai/ha,55
same,Plant response rating (scale of 0 to 100 where 0 is no effect and 100 is complete control),johnsongrass; 250 g ai/ha,80
same,Johnsongrass plant response rating (0 to 100),johnsongrass; 31 g ai/ha,25
same,Johnsongrass plant response rating (0 to 100),johnsongrass; 62 g ai/ha,35
same,"Plant response rating: Barley, Winter","barley, winter; 31 g ai/ha",20
same,"Plant response rating: Barley, Winter","barley, winter; 62 g ai/ha",25
same,"Plant response rating: Barley, Winter","barley, winter; 125 g ai/ha",35
same,"Plant response rating: Barley, Winter","barley, winter; 250 g ai/ha",40
same,"Plant response rating: Barley, Spring","barley, spring; 31 g ai/ha",20
same,"Plant response rating: Barley, Spring","barley, spring; 62 g ai/ha",35
same,"Plant response rating: Barley, Spring","barley, spring; 125 g ai/ha",35
same,"Plant response rating: Barley, Spring","barley, spring; 250 g ai/ha",40
